Results on twelve molecules are retold here after patent US8394952B2 (Vertex Pharmaceuticals Incorporated, priority 2006, dated 2013).

pKi: −log10 of the molar value. Where only a bound is given, the exact number is not on record here.

Sequence of Plk1 (P53350 20-338): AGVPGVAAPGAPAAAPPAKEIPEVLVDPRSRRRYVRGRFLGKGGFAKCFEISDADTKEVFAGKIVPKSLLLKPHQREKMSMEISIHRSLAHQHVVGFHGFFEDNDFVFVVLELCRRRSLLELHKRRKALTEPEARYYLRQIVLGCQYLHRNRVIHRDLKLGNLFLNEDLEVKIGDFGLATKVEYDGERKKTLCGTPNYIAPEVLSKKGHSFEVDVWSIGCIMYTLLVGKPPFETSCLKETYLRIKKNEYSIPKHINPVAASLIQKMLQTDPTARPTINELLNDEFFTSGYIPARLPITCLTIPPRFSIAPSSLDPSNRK

This assay has as its target Plk1 (Homo sapiens, UniProt P53350). As to the kind of experiment: biochemical.
Take `COc1cc(C(=O)NC2CC(C)(C)N(C)C(C)(C)C2)ccc1Nc1ncc2c(n1)N(C1CCCC1)CC(C)(C)C(=O)N2C` [Compound I-68, 4-(9-cyclopentyl-6,7,8,9-tetrahydro-5,7,7-trimethyl-6-oxo-5H-pyrimido[4,5-b][1,4]diazepin-2-ylamino)-3-methoxy-N-(1,2,2,6,6-pentamethylpiperidin-4-yl)-benzamide]: the pKi is more than 8.00.

As to `CCCN1CCC(NC(=O)c2ccc(Nc3ncc4c(n3)N(C3CCCC3)CC(C)(C)C(=O)N4C)c(OC)c2)CC1` [Compound I-69], the pKi was more than 8.00.

Take `COc1cc(C(=O)NC2CCN(CC(C)C)CC2)ccc1Nc1ncc2c(n1)N(C1CCCC1)CC(C)(C)C(=O)N2C` [Compound I-70]: the pKi was more than 8.00.

For `COc1cc(C(=O)NC2CCN(C(C)(C)C)CC2)ccc1Nc1ncc2c(n1)N(C1CCCC1)CC(C)(C)C(=O)N2C` [Compound I-71, 4-(9-cyclopentyl-6,7,8,9-tetrahydro-5,7,7-trimethyl-6-oxo-5H-pyrimido[4,5-b][1,4]diazepin-2-ylamino)-N-(1-tert-butylpiperidin-4-yl)-3-methoxybenzamide], the pKi is more than 8.00.

Take `CCN1CCC(NC(=O)c2ccc(Nc3ncc4c(n3)N(C3CCCC3)CC(C)(C)C(=O)N4C)c(OC)c2)CC1` [Compound I-72]: the pKi was more than 8.00.

With `COc1cc(C(=O)N[C@H]2CCN(C(C)C)C2)ccc1Nc1ncc2c(n1)N(C1CCCC1)CC(C)(C)C(=O)N2C` [Compound I-73, 4-(9-cyclopentyl-6,7,8,9-tetrahydro-5,7,7-trimethyl-6-oxo-5H-pyrimido[4,5-b][1,4]diazepin-2-ylamino)-N—((S)-1-isoipropylpyrrolidin-3-yl)-3-methoxybenzamide], the pKi is more than 8.00.

In the case of `CCOc1cc(C(=O)NC2CCN(C)CC2)ccc1Nc1ncc2c(n1)N(C1CCCC1)CC(C)(C)C(=O)N2C` [Compound I-74, 4-(9-cyclopentyl-6,7,8,9-tetrahydro-5,7,7-trimethyl-6-oxo-5H-pyrimido[4,5-b][1,4]diazepin-2-ylamino)-3-ethoxy-N-(1-methylpiperidin-4-yl)benzamide], the pKi is more than 8.00.

The molecule `COc1cc(C(=O)N[C@H]2CCN(CC3CC3)C2)ccc1Nc1ncc2c(n1)N(C1CCCC1)CC(C)(C)C(=O)N2C` [Compound I-75, 4-(9-cyclopentyl-6,7,8,9-tetrahydro-5,7,7-trimethyl-6-oxo-5H-pyrimido[4,5-b][1,4]diazepin-2-ylamino)-N—((S)-1-(cyclopropylmethyl)pyrrolidin-3-yl)-3-methoxybenzamide] showed a pKi of more than 8.00.

In turn, `COc1cc(C(=O)NC2CCN(C)CC2)ccc1Nc1ncc2c(n1)N(C1CCCC1)CC1(CC1)C(=O)N2C` [Compound I-76, 4-(9′-cyclopentyl-5′-methyl-6′-oxo-5′,6′,8′,9′-tetrahydrospiro[cyclopropane-1,7′-pyrimido[4,5-b][1,4]diazepine]-2′-ylamino)-3-methoxy-N-(1-methylpiperidin-4-yl)benzamide] had a pKi of more than 8.00.

`COc1cc(C(=O)NC2CCN(CCF)CC2)ccc1Nc1ncc2c(n1)N(C1CCCC1)CC(C)(C)C(=O)N2C` [Compound I-77, 4-(-9-cyclopentyl-6,7,8,9-tetrahydro-5,7,7-trimethyl-6-oxo-5H-pyrimido[4,5-b][1,4]diazepin-2-ylamino)-N-(1-(2-fluoroethyl)piperidin-4-yl)-3-methoxybenzamide]: the pKi is more than 8.00.

Molecule `CN1C(=O)C(C)(C)CN(C2CCCC2)c2nc(Nc3ccc(NC(=O)C(F)(F)F)cc3)ncc21` [Compound I-78, N-(4-(9-cyclopentyl-6,7,8,9-tetrahydro-5,7,7-trimethyl-6-oxo-5H-pyrimido[4,5-b][1,4]diazepin-2-ylamino)phenyl)-2,2,2-trifluoroacetamide] gave a pKi of 7.00 to 8.00.

With `CC(=O)N1CCc2cc(Nc3ncc4c(n3)N(C3CCCC3)CC(C)(C)C(=O)N4C)ccc21` [Compound I-79, 2-(1-acetylindolin-5-ylamino)-9-cyclopentyl-8,9-dihydro-5,7,7-trimethyl-5H-pyrimido[4,5-b][1,4]diazepin-6(7H)-one], the pKi is 7.00 to 8.00.
